Two molecules from ChEMBL document CHEMBL1142802, “L-arginine analogs as alternate substrates for nitric oxide synthase” (Bioorg Med Chem Lett, 2005) can be followed below.

The target in this assay is Nitric oxide synthase, inducible (Homo sapiens, UniProt P35228). In words: Binding affinity towards inducible nitric oxide synthase.
Sequence of Nitric oxide synthase, inducible (P35228 whole entry): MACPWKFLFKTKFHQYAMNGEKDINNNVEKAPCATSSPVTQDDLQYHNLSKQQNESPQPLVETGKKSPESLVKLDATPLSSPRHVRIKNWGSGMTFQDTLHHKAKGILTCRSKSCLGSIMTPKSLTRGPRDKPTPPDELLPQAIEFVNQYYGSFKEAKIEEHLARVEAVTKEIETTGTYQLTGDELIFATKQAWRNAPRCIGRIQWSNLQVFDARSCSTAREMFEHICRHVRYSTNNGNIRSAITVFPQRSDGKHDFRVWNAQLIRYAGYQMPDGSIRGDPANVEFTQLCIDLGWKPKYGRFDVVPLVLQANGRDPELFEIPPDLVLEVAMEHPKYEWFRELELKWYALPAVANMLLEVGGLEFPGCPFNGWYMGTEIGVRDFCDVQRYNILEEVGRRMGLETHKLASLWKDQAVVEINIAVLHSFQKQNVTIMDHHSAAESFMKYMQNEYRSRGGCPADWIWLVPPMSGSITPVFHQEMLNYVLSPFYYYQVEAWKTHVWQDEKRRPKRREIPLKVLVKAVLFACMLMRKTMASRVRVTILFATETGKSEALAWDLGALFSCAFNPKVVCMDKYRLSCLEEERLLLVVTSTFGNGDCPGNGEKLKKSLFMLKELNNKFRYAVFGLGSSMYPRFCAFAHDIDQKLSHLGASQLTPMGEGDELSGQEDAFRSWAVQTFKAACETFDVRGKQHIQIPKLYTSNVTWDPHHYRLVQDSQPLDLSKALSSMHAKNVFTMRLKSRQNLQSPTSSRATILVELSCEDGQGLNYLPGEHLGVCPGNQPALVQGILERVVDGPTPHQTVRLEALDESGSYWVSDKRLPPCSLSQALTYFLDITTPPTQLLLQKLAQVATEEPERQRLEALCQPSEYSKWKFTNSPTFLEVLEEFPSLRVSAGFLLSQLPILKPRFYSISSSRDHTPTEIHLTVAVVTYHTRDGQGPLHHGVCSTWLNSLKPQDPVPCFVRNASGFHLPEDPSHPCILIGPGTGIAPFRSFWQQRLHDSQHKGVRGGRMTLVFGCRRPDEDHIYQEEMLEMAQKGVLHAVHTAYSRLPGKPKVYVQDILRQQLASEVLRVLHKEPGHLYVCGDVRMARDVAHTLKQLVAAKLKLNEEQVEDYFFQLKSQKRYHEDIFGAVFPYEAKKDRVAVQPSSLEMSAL

`N=C(N)CCCCC(N)C(=O)O` (configuration not stated) gave a Ki of over 3000 µM.
In turn, `N=C(N)NOCC[C@H](N)C(=O)O` [CANAVANINE] registered a Ki of 220 µM.

As usually defined, the Ki is the equilibrium dissociation constant of an inhibitor or competing ligand from its target. A high value points to weaker binding.
